{"source": "paper PMC6934184", "about": "“Selective DNA-PKcs inhibition extends the therapeutic index of localized radiotherapy and chemotherapy” (The Journal of Clinical Investigation, 2019)", "target": "T1, JAK1 (Homo sapiens, UniProt P23458)", "T1 construct": "purchased Thermo Fisher Scientific (Life Technologies) SelectScreen", "T1 sequence (P23458 whole entry)": "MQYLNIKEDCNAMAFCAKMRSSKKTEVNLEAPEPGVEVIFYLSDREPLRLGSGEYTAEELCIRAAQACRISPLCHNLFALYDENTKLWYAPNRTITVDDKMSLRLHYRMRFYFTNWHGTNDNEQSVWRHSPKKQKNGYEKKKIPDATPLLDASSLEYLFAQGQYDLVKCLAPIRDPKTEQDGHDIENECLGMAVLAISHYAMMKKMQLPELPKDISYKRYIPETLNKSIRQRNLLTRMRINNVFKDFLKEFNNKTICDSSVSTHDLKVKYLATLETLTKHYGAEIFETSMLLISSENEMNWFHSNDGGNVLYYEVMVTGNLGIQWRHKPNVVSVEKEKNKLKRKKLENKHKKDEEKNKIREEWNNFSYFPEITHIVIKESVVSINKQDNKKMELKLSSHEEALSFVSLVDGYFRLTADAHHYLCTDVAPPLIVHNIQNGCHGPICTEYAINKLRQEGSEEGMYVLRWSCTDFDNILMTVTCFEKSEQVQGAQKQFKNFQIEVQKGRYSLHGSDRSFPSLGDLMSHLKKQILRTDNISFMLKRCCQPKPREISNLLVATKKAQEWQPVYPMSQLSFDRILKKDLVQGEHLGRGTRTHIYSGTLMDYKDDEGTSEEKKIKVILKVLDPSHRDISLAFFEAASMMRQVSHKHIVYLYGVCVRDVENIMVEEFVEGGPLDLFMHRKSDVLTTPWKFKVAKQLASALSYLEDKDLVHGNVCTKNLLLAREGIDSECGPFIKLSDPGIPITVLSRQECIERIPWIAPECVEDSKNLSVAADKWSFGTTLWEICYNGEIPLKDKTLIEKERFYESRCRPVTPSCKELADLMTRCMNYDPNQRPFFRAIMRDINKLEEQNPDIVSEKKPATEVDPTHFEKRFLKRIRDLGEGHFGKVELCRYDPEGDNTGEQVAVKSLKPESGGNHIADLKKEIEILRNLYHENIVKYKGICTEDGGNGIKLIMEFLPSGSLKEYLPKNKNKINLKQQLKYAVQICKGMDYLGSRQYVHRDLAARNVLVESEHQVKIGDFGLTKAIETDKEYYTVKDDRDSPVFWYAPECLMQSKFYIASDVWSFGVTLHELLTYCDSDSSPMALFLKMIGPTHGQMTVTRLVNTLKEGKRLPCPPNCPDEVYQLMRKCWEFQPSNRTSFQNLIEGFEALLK", "assay": "SelectScreen Z'LYTE", "format": "biochemical", "summary_of_the_method": "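NU5455 was profiled across the SelectScreen Broad panel of kinase activity and binding assays. Z'LYTE reactions such as CSF1R ran at apparent Km ATP, while the Adapta CAMK1 assay used ATP listed as 10. Values are given as percent.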", "data": [{"smiles": "CN(C(=O)CN1CCOCC1)c1ccc2sc3c(-c4cccc5c(=O)cc(N6CC7CCC(C6)O7)oc45)cccc3c2c1", "note": "[NU5455]", "values": [{"measurement": "inhibition at 1 µM", "value": -5.7, "unit": "%"}]}]}
